The record followed here is patent publication US8492582B2, “N-acyl anthranilic acid derivative or salt thereof” (Toyama Chemical Co., Ltd., priority 2009, dated 2013).

Counter-ions that a name gives are not always drawn. Like-named read-outs stand apart in the source and are kept apart here.

The experiment has as its system type I collagen α1 chain mRNA in WI-38 cells. As to the kind of experiment: Type I collagen α1 chain mRNA expression inhibition test. It is filed as cell-based. Particulars: Homo sapiens, read-out: Inhibition rate (%) at 10 μmol/L. The protocol:
Human embryonic lung fibroblast cell line WI-38 cells were suspended in a Dulbecco's modified Eagle's medium containing 10% fetal calf serum, and 7.5×10^4 cells were inoculated on a 12-well plate and cultured for 3 days, or 1.5×10^5 cells were inoculated and cultured for 2 days. After the growth of the cells to a subconfluent state, the culture medium was changed to a Dulbecco's modified Eagle's medium containing 0.4% fetal calf serum and 50 μg/mL ascorbic acid, and the cells were further cultured for 24 hours. Then, a test compound was added thereto, and, one hour later, TGF-β1 was added at a final concentration of 1 ng/mL. Twenty-four hours after the addition, the total RNA was extracted from the cells using an RNA extraction kit (SV Total RNA Isolation System, Promega), and cDNA was synthesized using a reverse transcriptase (ReverTra Ace, TOYOBO). The expression level of the type I collagen al chain mRNA was analyzed with a real-time PCR instrument (ABI PRISM 7700 Sequence Detection System, Applied Biosystems) by a real-time PCR method using a premix reagent of real-time PCR (SYBR Premix Ex Taq or SYBR Premix Ex Taq II (Perfect Real Time), TaKaRa). A PCR reaction was conducted with diluted cDNA as a template, using primers specific for a type I collagen α1 chain gene or a GAPDH gene as an internal standard, and the reaction product was measured. The PCR reaction was conducted by incubation at 95° C. for 10 seconds and 45 cycles of denaturation at 95° C. for 5 seconds and annealing/extension at 60° C. for 30 seconds. The expression level of the type I collagen α1 chain mRNA was corrected with GAPDH and was expressed as a relative value when the expression level obtained in the absence of the test compound was defined as 100%.

Setting [1] is: 10 μmol/L test compound, WI-38 cells, TGF-β1 1 ng/mL, 24 hours, Table 4a.
Setting [2] is: 10 μmol/L test compound, WI-38 cells, TGF-β1 1 ng/mL, 24 hours, Table 4b.

For the molecule `COc1ccc(O)c(C(=O)Nc2cc(-c3ccccc3)ccc2C(=O)O)c1` [Example 7a, 2-(2-Hydroxy-5-methoxybenzamido)-4-phenylbenzoic acid], the inhibition at 10 µM under setting [1] was determined as 94%.

Consider `CCCN1CCN(CCOc2ccc(O)c(C(=O)Nc3cc(-c4ccccc4)ccc3C(=O)O)c2)CC1` [183a, 2-(2-hydroxy-5-(2-(4-propylpiperazin-1-yl)ethoxy)benzamido)-4-phenylbenzoic acid dimethanesulfonate], for which the inhibition at 10 µM under setting [1] was 81%.

Regarding `O=C(Nc1cc(-c2ccccc2)ccc1C(=O)O)c1ccc(N2CCCCC2)cc1O` [Example 100a, 2-(2-hydroxy-4-(piperidin-1-yl)benzamido)-4-phenylbenzoic acid], the inhibition at 10 µM under setting [1] was 99%.

Regarding `O=C(Nc1cc(-c2ccccc2)ccc1C(=O)O)c1cc(-c2ccco2)ccc1O` [Example 68a, 2-(5-(furan-2-yl)-2-hydroxybenzamido)-4-phenylbenzoic acid], under setting [1], the inhibition at 10 µM was 98%.

Consider `CCNc1cccc(-c2ccc(C(=O)O)c(NC(=O)c3cncc(-c4ccccc4)c3)c2)c1` [11b, 4-(3-(ethylamino)phenyl)-2-(5-phenylpyridine-3-carboxamido)benzoic acid], for which, under setting [2], the inhibition at 10 µM worked out at 80%.

Take `O=C(Nc1cc(-c2ccccc2)ccc1C(=O)O)c1cc(C2CCN(CCO)CC2)ccc1O` [225a, 2-(2-hydroxy-5-(1-(2-hydroxyethyl)piperidin-4-yl)benzamido)-4-phenylbenzoic acid]: the inhibition at 10 µM under setting [1] was 86%.

For `O=C(Nc1cc(-c2ccccc2OC(F)(F)F)ccc1C(=O)O)c1cncc(-c2ccccc2)c1` [40b, Sodium 2-(5-phenylpyridine-3-carboxamido)-4-(2-(trifluoromethoxy)phenyl)benzoate], under setting [2], the inhibition at 10 µM turned out to be 96%.

Turning to `O=C(Nc1cc(-c2ccc[nH]2)ccc1C(=O)O)c1cc(N2CCCCC2)ccc1O` [157a, 2-(2-hydroxy-5-(piperidin-1-yl)benzamido)-4-(1H-pyrrol-2-yl)benzoic acid], the inhibition at 10 µM under setting [1] worked out at 84%.

Turning to `COc1ccc(C(=O)Nc2cc(-c3ccccc3)ccc2C(=O)O)c(O)c1` [Example 6a, 2-(2-Hydroxy-4-methoxybenzamido)-4-phenylbenzoic acid], the inhibition at 10 µM under setting [1] is 95%.

For the molecule `CN1CCC(COc2ccc(O)c(C(=O)Nc3cc(-c4ccccc4)ccc3C(=O)O)c2)CC1` [189a, 2-(2-hydroxy-5-(1-methylpiperidin-4-ylmethoxy)benzamido)-4-phenylbenzoic acid hydrochloride], the inhibition at 10 µM under setting [1] was 95%.

Consider `Cn1cccc1-c1ccc(C(=O)O)c(NC(=O)c2cncc(-c3ccccc3)c2)c1` [45b, 4-(1-methyl-1H-pyrrol-2-yl)-2-(5-phenylpyridine-3-carboxamido)benzoic acid], for which the inhibition at 10 µM under setting [2] was found to be 90%.

Take `O=C(Nc1cc(-c2ccccc2)ccc1C(=O)O)c1cc(-c2ccccn2)ccc1O` [Example 27a, 2-(2-hydroxy-5-(pyridin-2-yl)benzamido)-4-phenylbenzoic acid]: the inhibition at 10 µM under setting [1] came to 98%.

Consider `CN(C)CCN(C)c1ccc(C(=O)Nc2cc(-c3ccccc3)ccc2C(=O)O)c(O)c1` [Example 97a, sodium 2-(4-((2-(dimethylamino)ethyl)(methyl)amino)-2-hydroxybenzamido)-4-phenylbenzoate], for which the inhibition at 10 µM (WI-38, 24 h) was 83%.

As to `O=C(Nc1cc(-c2ccccc2C(F)(F)F)ccc1C(=O)O)c1cncc(-c2ccccc2)c1` [33b, Sodium 2-(5-phenylpyridine-3-carboxamido)-4-(2-(trifluoromethyl)phenyl)benzoate], the inhibition at 10 µM under setting [2] stood at 78%.

For the molecule `Cc1ccc(-c2ccc(C(=O)O)c(NC(=O)c3cc(N4CCCCC4)ccc3O)c2)cc1` [Example 150a, 2-(2-Hydroxy-5-(piperidin-1-yl)benzamido)-4-(4-methylphenyl)benzoic acid], the inhibition at 10 µM under setting [1] was found to be 93%.

For `CNC1CCN(Cc2ccc(O)c(C(=O)Nc3cc(-c4ccccc4)ccc3C(=O)O)c2)CC1` [Example 126a, 2-(2-Hydroxy-5-((4-(methylamino)piperidin-1-yl)methyl)benzamido)-4-phenylbenzoic acid dimethanesulfonate], the inhibition at 10 µM under setting [1] is 79%.

For `O=C(Nc1cc(-c2ccccc2)ccc1C(=O)O)c1cc(-c2ncccn2)ccc1O` [Example 29a, 2-(2-hydroxy-5-(pyrimidin-2-yl)benzamido)-4-phenylbenzoic acid], under setting [1], the inhibition at 10 µM is 90%.

Turning to `O=C(Nc1cc(N2CCCCC2)ccc1C(=O)O)c1cncc(-c2ccccc2)c1` [63b, Sodium 2-(5-phenylpyridine-3-carboxamido)-4-(piperidin-1-yl)benzoate], the inhibition at 10 µM (WI-38, 24 h) was found to be 65%.

As for `O=C(Nc1cc(-c2ccc3c(c2)ONO3)ccc1C(=O)O)c1cc(N2CCOCC2)ccc1O` [207a, 4-(Benzo-[1,3]-dioxazol-5-yl)-2-(2-hydroxy-5-(morpholin-4-yl)benzamido)benzoic acid], under setting [1], the inhibition at 10 µM was 83%.

On to `O=C(Nc1cc(-c2ccccc2)ccc1-c1nnn[nH]1)c1cncc(-c2ccccc2)c1` [29b, 5-phenyl-N-(5-phenyl-2-(1H-tetrazol-5-yl)phenyl)pyridine-3-carboxamide], for which the inhibition at 10 µM under setting [2] came to 86%.

With `CN(CCN1CCCC1)c1ccc(O)c(C(=O)Nc2cc(-c3ccccc3)ccc2C(=O)O)c1` [Example 95a, sodium 2-(2-hydroxy-5-(methyl(2-(pyrrolidin-1-yl)ethyl)amino)benzamido)-4-phenylbenzoate], the inhibition at 10 µM (WI-38, 24 h) worked out at 88%.

Regarding `O=C(Nc1cc(-c2ccccc2F)ccc1C(=O)O)c1cncc(-c2ccccc2)c1` [44b, sodium 4-(2-fluorophenyl)-2-(5-phenylpyridine-3-carboxamido)-benzoate], for the setting “WI-38, 24 h”, the inhibition at 10 µM amounted to 93%.

As to `CCN(CCO)CCOc1ccc(O)c(C(=O)Nc2cc(-c3ccccc3)ccc2C(=O)O)c1` [182a, 2-(5-(2-(Ethyl(2-hydroxyethyl)amino)ethoxy)-2-hydroxybenzamido)-4-phenylbenzoic acid hydrochloride], under setting [1], the inhibition at 10 µM is 82%.

With `O=C(Nc1cc(-c2ccccc2)ccc1C(=O)O)c1cc(Oc2ccccc2)ccc1O` [Example 115a, 2-(2-hydroxy-5-phenoxybenzamido)-4-phenylbenzoic acid], the inhibition at 10 µM under setting [1] was determined as 98%.

Consider `O=C(Nc1cc(-c2ccsc2)ccc1C(=O)O)c1cncc(-c2ccccc2)c1` [46b, sodium 2-(5-phenylpyridine-3-carboxamido)-4-(thiophen-3-yl)benzoate], for which, for the setting “WI-38, 24 h”, the inhibition at 10 µM turned out to be 69%.

Turning to `Nc1cccc(-c2ccc(O)c(C(=O)Nc3cc(-c4ccccc4)ccc3C(=O)O)c2)n1` [Example 73a, 2-(5-(6-aminopyridin-2-yl)-2-hydroxybenzamido)-4-phenylbenzoic acid], under setting [1], the inhibition at 10 µM amounted to 96%.

On to `CNc1cccc(-c2ccc(C(=O)O)c(NC(=O)c3cncc(-c4ccccc4)c3)c2)c1` [13b, 4-(3-(Methylamino)phenyl)-2-(5-phenylpyridine-3-carboxamido)benzoic acid], for which the inhibition at 10 µM under setting [2] was 92%.

On to `COc1cccc(-c2ccc(C(=O)O)c(NC(=O)c3cc(N4CCOCC4)ccc3O)c2)c1` [204a, 2-(2-Hydroxy-5-(morpholin-4-yl)benzamido)-4-(3-methoxyphenyl)benzoic acid], for which the inhibition at 10 µM under setting [1] was determined as 89%.

`CN(C)CCOc1ccc(O)c(C(=O)Nc2cc(-c3ccccc3)ccc2C(=O)O)c1` [Example 109a, 2-(5-(2-(Dimethylamino)ethoxy)-2-hydroxybenzamido)-4-phenylbenzoic acid hydrochloride]: the inhibition at 10 µM under setting [1] is 91%.

Turning to `O=C(Nc1cc(-c2ccccc2)ccc1C(=O)O)c1cc(OCCN2CCNCC2)ccc1O` [Example 144a, 2-(2-hydroxy-5-(2-(piperazin-1-yl)ethoxy)benzamido)-4-phenylbenzoic acid dimethanesulfonate], the inhibition at 10 µM under setting [1] is 96%.

`O=C(Nc1cc(-c2ccccc2)ccc1C(=O)O)c1cc(OCCN2CCN(CCCO)CC2)ccc1O` [174a, 2-(2-hydroxy-5-(2-(4-(3-hydroxypropyl)piperazin-1-yl)ethoxy)benzamido)-4-phenylbenzoic acid]: the inhibition at 10 µM under setting [1] is 86%.

As to `CN(C)c1cccc(-c2ccc(C(=O)O)c(NC(=O)c3cncc(-c4ccccc4)c3)c2)c1` [51b, 4-(3-(Dimethylamino)phenyl)-2-(5-phenylpyridine-3-carboxamido)benzoic acid], the inhibition at 10 µM under setting [2] came out at 92%.

Consider `CN(C)c1ccc(O)c(C(=O)Nc2cc(-c3ccccc3)ccc2C(=O)O)c1` [Example 76a, 2-(5-(dimethylamino)-2-hydroxybenzamido)-4-phenylbenzoic acid hydrochloride], for which the inhibition at 10 µM under setting [1] was found to be 72%.

For the molecule `CN1CCC(c2ccc(O)c(C(=O)Nc3cc(-c4ccccc4)ccc3C(=O)O)c2)CC1` [Example 50a, 2-(2-hydroxy-5-(1-methylpiperidin-4-yl)benzamido)-4-phenylbenzoic acid], the inhibition at 10 µM under setting [1] amounted to 75%.
